The first assay has as its system IL3000 T. congolense (drug sensitive) strain. The assay can be described thus: In vitro Alamar Blue 72 h drug sensitivity assay for T. congolense. The note with it: Trypanosoma congolense, 72 h, bloodstream form, 69 h + 3 h Resazurin, 34° C., read-out: IC50: I Org. Growth T. congolense 3 d. The class given is cell-based, Trypanosoma congolense. The method, then:
Example 252. In Vitro Alamar Blue 72 h Drug Sensitivity Assay for T. congolense
Compounds were tested in vitro for chemotherapeutic potency against the IL3000 T. congolense (drug sensitive) strain, using the Alamar Blue assay with several modifications. Test compounds were prepared as 10 mg/mL DMSO stocks for each assay run. Compounds were assayed in at least three separate, independent test runs and an 11-point dilution curve was used to determine the IC50 values. Bloodstream form trypanosomes were supported in HMI media containing 20% bovine serum and were incubated with test compounds for 69 h at 34° C. in a humidified atmosphere containing 5% CO2. Thereafter, 10 μL of Resazurin dye (12.5 mg in 100 mL of phosphate buffered saline, Sigma-Aldrich, Buchs, Switzerland) were added for an additional 3 h. Plates were then read using a fluorescent plate reader (Spectramax, Gemini XS, Bucher Biotec, Basel, Switzerland) using an excitation wavelength of 536 nm and an emission wavelength of 588 nm. Data points were averaged to generate sigmoidal dose-response curves and IC50 values were determined using Softmax Pro 5.2 software.
Consider `C[C@H](NC(=O)c1ccc2c(c1)B(O)OC2)C(=O)OC(C)(C)c1ccccc1` [Example 6-015, 2-Phenylpropan-2-yl (1-hydroxy-1,3-dihydrobenzo[c][1,2]oxaborole-6-carbonyl)-L-alaninate], for which the IC50 lay within 10 to 5000 nM.

For `C[C@@H](NC(=O)c1ccc2c(c1)B(O)OC2)C(=O)OCc1ccccc1` [Example 6-175, Benzyl (1-hydroxy-1,3-dihydrobenzo[c][1,2]oxaborole-6-carbonyl)-D-alaninate], the IC50 lay in the range of 10 to 5000 nM.

For the molecule `CC(C)[C@H](NC(=O)c1ccc2c(c1F)B(O)OC2)C(=O)OCc1ccc(F)cc1F` [Example 6-037, 2,4-Difluorobenzyl (7-fluoro-1-hydroxy-1,3-dihydrobenzo[c][1,2]oxaborole-6-carbonyl)-L-valinate], the 50% inhibitory concentration (IC50) was in the range of 10 to 5000 nM.

Regarding `COC(=O)[C@@H](CCCc1ccccc1)NC(=O)c1ccc2c(c1)B(O)OC2` [Example 6-029, Methyl (R)-2-(1-hydroxy-1,3-dihydrobenzo[c][1,2]oxaborole-6-carboxamido)-5-phenylpentanoate], the 50% inhibitory concentration (IC50) was 10 to 5000 nM.

Turning to `COC(=O)[C@H](Cc1c[nH]c2ccccc12)NC(=O)c1ccc2c(c1)B(O)OC2` [Example 6-183, Methyl (1-hydroxy-1,3-dihydrobenzo[c][1,2]oxaborole-6-carbonyl)-L-tryptophanate], the IC50 lay in the range of 10 to 5000 nM.

As to `COC(=O)[C@H](CCCc1ccccc1)NC(=O)c1ccc2c(c1)B(O)OC2` [Example 6-028, Methyl (S)-2-(1-hydroxy-1,3-dihydrobenzo[c][1,2]oxaborole-6-carboxamido)-5-phenylpentanoate], the IC50 fell in the range of 10 to 5000 nM.

`Cc1cccc(C)c1OC(=O)[C@H](C)NC(=O)c1ccc2c(c1)B(O)OC2` [Example 6-001, 2,6-Dimethylphenyl (1-hydroxy-1,3-dihydrobenzo[c][1,2]oxaborole-6-carbonyl)-L-alaninate]: the concentration for half-maximal inhibition (IC50) was 10 to 5000 nM.

Turning to `Cc1c(C(=O)N[C@H](C(=O)OC2COCCOC2)C(C)C)ccc2c1B(O)OC2` [Example 6-162, 1,4-dioxepan-6-yl (1-hydroxy-7-methyl-1,3-dihydrobenzo[c][1,2]oxaborole-6-carbonyl)-L-valinate], the IC50 fell in the range of 0.51 to 9.99 nM.

Consider `CC(C)(NC(=O)c1ccc2c(c1)B(O)OC2)C(=O)OCc1ccccc1` [Example 6-013, Benzyl 2-(1-hydroxy-1,3-dihydrobenzo[c][1,2]oxaborole-6-carboxamido)-2-methylpropanoate], for which the IC50 was in the range of 10 to 5000 nM.

Consider `O=C(OCc1ccccc1)[C@@H]1CCCN1C(=O)c1ccc2c(c1)B(O)OC2` [Example 6-012, Benzyl (1-hydroxy-1,3-dihydrobenzo[c][1,2]oxaborole-6-carbonyl)-L-prolinate], for which the IC50 is 10 to 5000 nM.

Consider `NC(=O)CC[C@H](NC(=O)c1ccc2c(c1)B(O)OC2)C(=O)OCc1ccccc1` [Example 6-011, Benzyl (1-hydroxy-1,3-dihydrobenzo[c][1,2]oxaborole-6-carbonyl)-L-glutaminate], for which the IC50 fell in the range of 10 to 5000 nM.

As for `COC(=O)[C@H](CC1CC1)NC(=O)c1ccc2c(c1)B(O)OC2` [Example 6-184, Methyl (S)-3-cyclopropyl-2-(1-hydroxy-1,3-dihydrobenzo[c][1,2]oxaborole-6-carboxamido)propanoate], the IC50 lay within 10 to 5000 nM.

Turning to `O=C(CNC(=O)c1ccc2c(c1)B(O)OC2)OCc1ccccc1` [Example 6-004, Benzyl (1-hydroxy-1,3-dihydrobenzo[c][1,2]oxaborole-6-carbonyl)glycinate], the IC50 is 10 to 5000 nM.

For `CC(C)[C@H](NC(=O)c1ccc2c(c1)B(O)OC2(C)C)C(=O)OCc1ccc(F)cc1F` [Example 6-034, 2,4-Difluorobenzyl (1-hydroxy-3,3-dimethyl-1,3-dihydrobenzo[c][1,2]oxaborole-6-carbonyl)-L-valinate], the half-inhibitory concentration (IC50) lay within 10 to 5000 nM.

Consider `COC(=O)[C@@H](NC(=O)c1ccc2c(c1)B(O)OC2)C(C)C` [Example 6-179, Methyl (1-hydroxy-1,3-dihydrobenzo[c][1,2]oxaborole-6-carbonyl)-L-valinate], for which the concentration for half-maximal inhibition (IC50) was in the range of 10 to 5000 nM.

For `Cc1cccc(C)c1COC(=O)[C@H](C)NC(=O)c1ccc2c(c1)B(O)OC2` [Example 6-014, 2,6-Dimethylbenzyl (1-hydroxy-1,3-dihydrobenzo[c][1,2]oxaborole-6-carbonyl)-L-alaninate], the IC50 fell in the range of 10 to 5000 nM.

As to `Cc1c(C(=O)N[C@H](C(=O)OCc2ccc(OCCN3CCCC3)cc2)C(C)C)ccc2c1B(O)OC2` [Example 6-163, 4-(2-(Pyrrolidin-1-yl)ethoxy)benzyl (1-hydroxy-7-methyl-1,3-dihydrobenzo[c][1,2]oxaborole-6-carbonyl)-L-valinate], the half-inhibitory concentration (IC50) was below 0.5 nM.

The same assay, now with this note: bloodstream form, 69 h + 3 h Resazurin, 34° C., read-out: IC50: I Org. Growth T. congolense 3 d.
On to `COC(=O)[C@H](Cc1ccccc1)NC(=O)c1ccc2c(c1)B(O)OC2` [Example 6-181, Methyl (1-hydroxy-1,3-dihydrobenzo[c][1,2]oxaborole-6-carbonyl)-L-phenylalaninate], for which the half-maximal inhibitory concentration (IC50) lay in the range of 10 to 5000 nM.

In a further assay the test system is T. cruzi amastigote (Td Tomato-modified) in Vero cells. The assay can be described thus: In vitro IC50 measurement of T. cruzi amastigote killing using Td Tomato-modified T. cruzi. The class given is cell-based. Particulars: Trypanosoma cruzi, 72 h, fluorescence, read-out: IC50: I Org. amastigote Growth T. cruzi 3 d. As to the method:
Example 254. In Vitro IC50 Measurement of T. cruzi Amastigote Killing Using Td Tomato-Modified T. cruzi
The T. cruzi parasites used in this assay were genetically modified to express Td Tomato fluorescent protein. Vero cells (African green monkey kidney epithelial cells) were harvested from continuous cultures using trypsin and added to the inner 60 wells of 96-well Greiner Bio One plates (plate catalog #655090) at 200 ul/well of […]. Cells were allowed to adhere for 1 h before infection with T. cruzi. T. cruzi for infection were harvested from previously-infected Vero cells, washed, pelleted and resuspended at 5×10^6/mL. 50 uL of parasites were added to each well containing Vero cells. Compounds were prepared from 5 mM stock concentrations in DMSO to final concentrations in wells ranging from 5 uM to 5 nM. Wells were provided for negative controls, lacking compounds. Plates were placed into a 37° C. incubator for 20 min, then a “Day 0” reading was taken on a Synergy H4 plate reader to record initial fluorescence levels, at 544 (excitation) and 612 nm (emission). 96-well plates were placed in Tupperware containers with wet paper towels and incubated at 37° C. incubator for 72 h. After 72 h plates were reread (Day 3 reading) and data analyzed using Excel and/or Graphpad software. Day 0 fluorescence was subtracted from Day 3 to remove input parasite fluorescence. Growth curves are generated and 50% and 90% inhibitory concentrations are determined by nonlinear regression analysis.
For the molecule `Cc1c(C(=O)N[C@H](C(=O)OCc2ccccn2)C(C)C)ccc2c1B(O)OC2` [Example 6-191, Pyridin-2-ylmethyl (1-hydroxy-7-methyl-1,3-dihydrobenzo[c][1,2]oxaborole-6-carbonyl)-L-valinate], the IC50 is at most 20 nM.

With `Cc1c(C(=O)N[C@H](C(=O)OCC2(C)CCOC2)C(C)C)ccc2c1B(O)OC2` (stereo partly drawn) [Example 6-233, (3-methyltetrahydrofuran-3-yl)methyl (1-hydroxy-7-methyl-1,3-dihydrobenzo[c][1,2]oxaborole-6-carbonyl)-L-valinate], the IC50 is at most 20 nM.

`Cc1c(C(=O)N[C@H](C(=O)OCC2(O)CCOC2)C(C)C)ccc2c1B(O)OC2` (stereo partly drawn) [Example 6-250, (3-hydroxytetrahydrofuran-3-yl)methyl (1-hydroxy-7-methyl-1,3-dihydrobenzo[c][1,2]oxaborole-6-carbonyl)-L-valinate]: the half-inhibitory concentration (IC50) is at least 1000 nM.

Consider `Cc1c(C(=O)N[C@H](C(=O)OCC(C)C)C(C)C)ccc2c1B(O)OC2` [Example 6-116, Isobutyl (1-hydroxy-7-methyl-1,3-dihydrobenzo[c][1,2]oxaborole-6-carbonyl)-L-valinate], for which the IC50 is at most 20 nM.

As for `Cc1c(C(=O)N[C@H](C(=O)OCc2ccc(S(N)(=O)=O)cc2)C(C)C)ccc2c1B(O)OC2` [Example 6-108, 4-Sulfamoylbenzyl (1-hydroxy-7-methyl-1,3-dihydrobenzo[c][1,2]oxaborole-6-carbonyl)-L-valinate], the IC50 was at least 1000 nM.

As to `Cc1c(C(=O)N[C@H](C(=O)OCc2ccc(C(=O)N(C)CCN(C)C)cc2)C(C)C)ccc2c1B(O)OC2` [Example 6-106, 4-((2-(Dimethylamino)ethyl)(methyl)carbamoyl)benzyl (1-hydroxy-7-methyl-1,3-dihydrobenzo[c][1,2]oxaborole-6-carbonyl)-L-valinate], the concentration for half-maximal inhibition (IC50) is at least 1000 nM.

For the molecule `Cc1c(C(=O)N[C@H](C(=O)OCc2cncc(N(C)C)n2)C(C)C)ccc2c1B(O)OC2` [Example 6-232, (6-(dimethylamino)pyrazin-2-yl)methyl (1-hydroxy-7-methyl-1,3-dihydrobenzo[c][1,2]oxaborole-6-carbonyl)-L-valinate], the IC50 was at most 20 nM.

In the case of `Cc1c(C(=O)N[C@H](C(=O)OCc2cccnc2)C(C)C)ccc2c1B(O)OC2` [Example 6-187, Pyridin-3-ylmethyl (1-hydroxy-7-methyl-1,3-dihydrobenzo[c][1,2]oxaborole-6-carbonyl)-L-valinate], the half-inhibitory concentration (IC50) was at most 20 nM.

Turning to `Cc1c(C(=O)N[C@H](C(=O)OCc2ccc3ncccc3c2)C(C)C)ccc2c1B(O)OC2` [Example 6-127, Quinolin-6-ylmethyl (1-hydroxy-7-methyl-1,3-dihydrobenzo[c][1,2]oxaborole-6-carbonyl)-L-valinate], the half-inhibitory concentration (IC50) lay in the range of 21 to 999 nM.

`Cc1c(C(=O)N[C@H](C(=O)OCc2ccc(C(=O)N3CCN(C)CC3)cc2)C(C)C)ccc2c1B(O)OC2` [Example 6-105, 4-(4-Methylpiperazine-1-carbonyl)benzyl (1-hydroxy-7-methyl-1,3-dihydrobenzo[c][1,2]oxaborole-6-carbonyl)-L-valinate]: the IC50 is 21 to 999 nM.

`Cc1c(C(=O)N[C@H](C(=O)OC[C@H](O)CO)C(C)C)ccc2c1B(O)OC2` [Example 6-147, (R)-2,3-dihydroxypropyl (1-hydroxy-7-methyl-1,3-dihydrobenzo[c][1,2]oxaborole-6-carbonyl)-L-valinate]: the IC50 is at least 1000 nM.

For the origin of these results see patent publication US11578087B2, “Oxaborole esters and uses thereof” (priority 2016, dated 2023).
